Data: patent EP3826985B1, “DENDRIMER-TYPE COMPOUNDS, METHODS FOR PRODUCING SAME, AND USES THEREOF” (Université De Reims Champagne-Ardenne, priority 2018, dated 2020)

Experiment: Metal cation trapping by dendrimer (dialysis, ICP-AES)
Procedure: Une solution aqueuse contenant l'ion métallique (6 mL, Cf = 4.10^-5 mol/L) a été mélangée avec une solution aqueuse de II.6 (6 mL; 2.10^-6 mol/L); la solution résultante a été agitée pendant 2h à une vitesse d'agitation de 300 tours/min à température ambiante.
Une dialyse d'une heure a été réalisée en utilisant une membrane d'ester de cellulose (Cutoff 1000) dans de l'eau distillée (1L). Pour déterminer la quantité d'ion métallique extraite par le dendrimère, 10 mL de l'eau de dialyse ont été prélevés pour l'analyse ICP-AES (Spectrométrie à plasma à couplage inductif - Spectrométrie d'Emission Atomique).
L'analyse de l'eau de dialyse par ICP-AES (Thermo Scientific, iCAP 6000 Séries) a permis d'obtenir la quantité de métal résiduelle. La quantité d'ions (M^n+) présente dans la phase dendrimère a été obtenue par différence entre la quantité initiale et la quantité résiduelle.
Le pourcentage de rétention (% R) a été calculé selon l'expression suivante : %R = (n(Maq(initial))−n(Maq(final)))/(n Maq(initial)) × 100 [formula] avec n (Maq(initial)) et n (Maq(final)), les nombres de moles d'ions métalliques respectivement dans la solution de départ et dans l'eau de dialyse après extraction.

OCC(O)COCC(COCC(COCC(COCC(COCC(COCC(O)CO)OCC(O)CO)OCC(COCC(O)CO)OCC(O)CO)OCC(COCC(COCC(O)CO)OCC(O)CO)OCC(COCC(O)CO)OCC(O)CO)OCC(COCC(O)CO)OCC(O)CO)OCC(O)CO (stereo not shown) [II.6]
% R (Ag^+, Rapport n (Maq (initial)) / n (II.6) = 104,5): 88% | % R (Cd^2+, Rapport n (Maq (initial)) / n (II.6) = 73): 95,5% | % R (Ce^3+, Rapport n (Maq (initial)) / n (II.6) = 93): >95% | % R (Cu^2+, Rapport n (Maq (initial)) / n (II.6) = 63,6): 75% | % R (Hg^2+, Rapport n (Maq (initial)) / n (II.6) = 140): 85% | % R (Ni^2+, Rapport n (Maq (initial)) / n (II.6) = 85,5): 89% | % R (Pb^2+, Rapport n (Maq (initial)) / n (II.6) = 77): 99%
